Results taken from ChEMBL document CHEMBL1154038, “Discovery of orally active, pyrrolidinone-based progesterone receptor partial agonists” (Bioorg Med Chem Lett, 2009).

What was measured:
[1] = AUC (0 to t) in rat at 2 mg/kg, po; format: ADME, organism-based; parameters: dose 2 mg/kg, route oral; conditions: plasma
[2] = Oral bioavailability in rat at 2 mg/kg; format: ADME, organism-based; conditions: in vivo
[3] = Volume of distribution at steady state in monkey at 1 mg/kg, iv or 1.3 mg/kg, po; format: ADME, organism-based, Macaca mulatta; conditions: rhesus monkey, in vivo, read-out: Vdss
[4] = Half life in rat at 2 mg/kg, po; format: ADME, organism-based; parameters: dose 2 mg/kg, route oral; conditions: in vivo
[5] = Half life in monkey at 1.3 mg/kg, po; format: ADME, organism-based, Macaca mulatta; parameters: dose 1.3 mg/kg, route oral; conditions: rhesus monkey, in vivo
[6] = Plasma clearance in rat at 2.0 mg/kg, po; format: ADME, organism-based; parameters: dose 2 mg/kg, route oral
[7] = Plasma clearance in monkey at 1.3 mg/kg, po; format: ADME, organism-based, Macaca mulatta; parameters: dose 1.3 mg/kg, route oral; conditions: rhesus monkey
[8] = Cmax in monkey at 1.3 mg/kg, po; format: ADME, organism-based, Macaca mulatta; parameters: dose 1.3 mg/kg, route oral; conditions: rhesus monkey, in vivo
[9] = Cmax in rat at 2 mg/kg, po; format: ADME, organism-based; parameters: dose 2 mg/kg, route oral; conditions: in vivo
[10] = Volume of distribution at steady state in rat at 1.1 mg/kg, iv or 2 mg/kg, po; format: ADME, organism-based; conditions: in vivo, read-out: Vdss
[11] = AUC (0 to t) in monkey at 1.3 mg/kg, po; format: ADME, organism-based, Macaca mulatta; parameters: dose 1.3 mg/kg, route oral; conditions: rhesus monkey, plasma
[12] = Oral bioavailability in monkey at 1.3 mg/kg, po; format: ADME, organism-based, Macaca mulatta; conditions: rhesus monkey, in vivo
[13] = Volume of distribution at steady state in monkey at 1 mg/kg, iv or 1.6 mg/kg, po; format: ADME, organism-based, Macaca mulatta; conditions: rhesus monkey, in vivo, read-out: Vdss
[14] = Volume of distribution at steady state in rat at 1 mg/kg, iv or 2.2 mg/kg, po; format: ADME, organism-based; conditions: in vivo, read-out: Vdss
[15] = Plasma clearance in monkey at 1.6 mg/kg, po; format: ADME, organism-based, Macaca mulatta; parameters: dose 1.6 mg/kg, route oral; conditions: rhesus monkey
[16] = AUC (0 to t) in rat at 2.2 mg/kg, po; format: ADME, organism-based; parameters: dose 2.2 mg/kg, route oral; conditions: plasma
[17] = Plasma clearance in rat at 2.2 mg/kg, po; format: ADME, organism-based; parameters: dose 2.2 mg/kg, route oral
[18] = Cmax in rat at 2.2 mg/kg, po; format: ADME, organism-based; parameters: dose 2.2 mg/kg, route oral; conditions: in vivo
[19] = Oral bioavailability in rat at 2.2 mg/kg; format: ADME, organism-based; conditions: in vivo
[20] = Half life in monkey at 1.6 mg/kg, po; format: ADME, organism-based, Macaca mulatta; parameters: dose 1.6 mg/kg, route oral; conditions: rhesus monkey, in vivo
[21] = Oral bioavailability in monkey at 1.6 mg/kg, po; format: ADME, organism-based, Macaca mulatta; conditions: rhesus monkey, in vivo
[22] = AUC (0 to t) in monkey at 1.6 mg/kg, po; format: ADME, organism-based, Macaca mulatta; parameters: dose 1.6 mg/kg, route oral; conditions: rhesus monkey, plasma
[23] = Cmax in monkey at 1.6 mg/kg, po; format: ADME, organism-based, Macaca mulatta; parameters: dose 1.6 mg/kg, route oral; conditions: rhesus monkey, in vivo
[24] = Half life in rat at 2.2 mg/kg, po; format: ADME, organism-based; parameters: dose 2.2 mg/kg, route oral; conditions: in vivo
[25] = Cmax in rat at 1.3 mg/kg, po; format: ADME, organism-based; parameters: dose 1.3 mg/kg, route oral; conditions: in vivo
[26] = AUC (0 to t) in rat at 1.3 mg/kg, po; format: ADME, organism-based; parameters: dose 1.3 mg/kg, route oral; conditions: plasma
[27] = Plasma clearance in rat at 1.3 mg/kg, po; format: ADME, organism-based; parameters: dose 1.3 mg/kg, route oral
[28] = Half life in rat at 1.3 mg/kg, po; format: ADME, organism-based; parameters: dose 1.3 mg/kg, route oral; conditions: in vivo
[29] = Oral bioavailability in rat at 1.3 mg/kg; format: ADME, organism-based; conditions: in vivo
[30] = Volume of distribution at steady state in rat at 1 mg/kg, iv or 1.3 mg/kg, po; format: ADME, organism-based; conditions: in vivo, read-out: Vdss
[31] = Plasma clearance in rat at 0.12 mg/kg, po; format: ADME, organism-based; parameters: dose 0.12 mg/kg, route oral
[32] = Oral bioavailability in rat at 0.12 mg/kg; format: ADME, organism-based; conditions: in vivo
[33] = AUC (0 to t) in rat at 0.12 mg/kg, po; format: ADME, organism-based; parameters: dose 0.12 mg/kg, route oral; conditions: plasma
[34] = Volume of distribution at steady state in rat at 1.1 mg/kg, iv or 0.12 mg/kg, po; format: ADME, organism-based; conditions: in vivo, read-out: Vdss
[35] = Cmax in rat at 0.12 mg/kg, po; format: ADME, organism-based; parameters: dose 0.12 mg/kg, route oral; conditions: in vivo
[36] = Half life in rat at 0.12 mg/kg, po; format: ADME, organism-based; parameters: dose 0.12 mg/kg, route oral; conditions: in vivo

## CCN1C[C@@H](N(Cc2cc(Cl)ccc2Cl)c2ccc(C#N)c(Cl)c2)CC1=O
[1]
  AUC(0-t): 150 ng·h/mL
[2]
  bioavailability: 100%
[3]
  Vd: 2.8 L/kg
[4]
  half-life: 1.8 h
[5]
  half-life: 1.5 h
[6]
  CL/F: 230 mL/min/kg
[7]
  CL/F: 480 mL/min/kg
[8]
  Cmax: 15 ng/mL
[9]
  Cmax: 84 ng/mL
[10]
  Vd: 35 L/kg
[11]
  AUC(0-t): 32 ng·h/mL
[12]
  bioavailability: 4.9%

## CN1C[C@@H](N(Cc2cccc(F)c2F)c2ccc(C#N)c(Cl)c2)CC1=O
[13]
  Vd: 1.7 L/kg
[14]
  Vd: 3.4 L/kg
[15]
  CL/F: 110 mL/min/kg
[16]
  AUC(0-t): 2300 ng·h/mL
[17]
  CL/F: 16 mL/min/kg
[18]
  Cmax: 660 ng/mL
[19]
  bioavailability: 100%
[20]
  half-life: 1.4 h
[21]
  bioavailability: 15%
[22]
  AUC(0-t): 270 ng·h/mL
[23]
  Cmax: 92 ng/mL
[24]
  half-life: 6.2 h

## CCN1C[C@@H](N(Cc2cc(F)ccc2Cl)c2ccc(C#N)c(Cl)c2)CC1=O
[25]
  Cmax: 97 ng/mL
[26]
  AUC(0-t): 290 ng·h/mL
[27]
  CL/F: 75 mL/min/kg
[28]
  half-life: 2 h
[29]
  bioavailability: 100%
[30]
  Vd: 15 L/kg

## CC(C)N1C[C@@H](N(Cc2ccccc2Cl)c2ccc(C#N)c(Cl)c2)CC1=O
[31]
  CL/F: 40 mL/min/kg
[32]
  bioavailability: 100%
[33]
  AUC(0-t): 30 ng·h/mL
[34]
  Vd: 42 L/kg
[35]
  Cmax: 10 ng/mL
[36]
  half-life: 5.8 h
